{
  "source": "patent US9540400B2",
  "about": "“Compounds as diacylglycerol acyltransferase inhibitors” (GlaxoSmithKline Intellectual Property (No. 2) Limited, priority 2011, dated 2017)",
  "data": [
    {"target": "T1, Human DGAT1 (Homo sapiens, UniProt O75907)", "T1 construct": "made in house; host or cells: Sf9 insect cells (baculovirus); microsomes", "T1 sequence (O75907 1-488)": "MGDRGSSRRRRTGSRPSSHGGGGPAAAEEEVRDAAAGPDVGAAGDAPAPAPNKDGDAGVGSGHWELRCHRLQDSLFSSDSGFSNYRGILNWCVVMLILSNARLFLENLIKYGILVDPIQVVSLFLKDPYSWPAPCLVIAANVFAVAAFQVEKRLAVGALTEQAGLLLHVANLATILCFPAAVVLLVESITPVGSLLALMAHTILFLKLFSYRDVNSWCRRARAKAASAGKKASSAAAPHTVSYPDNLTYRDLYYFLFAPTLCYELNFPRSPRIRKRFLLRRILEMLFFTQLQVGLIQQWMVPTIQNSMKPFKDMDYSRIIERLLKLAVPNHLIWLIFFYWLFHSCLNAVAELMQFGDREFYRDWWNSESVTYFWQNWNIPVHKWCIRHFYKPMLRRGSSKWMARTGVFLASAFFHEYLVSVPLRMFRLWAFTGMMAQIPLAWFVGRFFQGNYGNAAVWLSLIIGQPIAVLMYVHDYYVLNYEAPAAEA", "assay": "hDGAT1 fluorescence (CPM) assay, inhibition of CoA product formation", "type": "biochemical", "details": "human DGAT1 microsomes from Sf9 cells", "protocol": "(§1) Human DGAT1 was expressed in Sf9 insect cells using a baculovirus expression system. Microsomes were prepared and used as enzyme for in vitro inhibition testing in either of two formats measuring production of coenzyme A or tridecanoylglycerol product, respectively. All steps were performed at 21-23° C. All data for DGAT1 inhibition by test compounds were collected under conditions where product formation was linear with reaction time.\nFor inhibition of CoA product formation, test compounds were prepared in 100% DMSO, diluted 100-fold into assay buffer, and 10 uL added to 96-well half-area plates (Greiner 675076). An equal volume (10 uL) of 3× enzyme in buffer was added and the components incubated for 30 minutes pre-reaction incubation to allow enzyme and test compounds to attain binding equilibrium. […] Some assays were performed with inclusion of didecanoylglycerol in the pre-reaction incubation of test compound and enzyme. DGAT reactions (30 uL) were initiated upon addition of 10 uL of 3× substrate solution. Final reaction conditions consisted of 20 mM HEPES pH 7.5, 2 mM MgCl2, 1 mM CHAPS, 50 uM didecanoylglycerol, 3 uM decanoyl-CoA, 1 ug/mL microsomal protein, and 1% DMSO. Following a 60 minute reaction incubation, reactions were stopped and CoA product derivatized with 30 uL of buffer containing 10 uM {4-[4-(4-amino-7,7-dimethyl-7H-pyrimido[4,5-b][1,4]oxazin-6-yl)phenyl]cyclohexyl}acetic acid and 50 uM 7-diethylamino-3-(4′-maleimidylphenyl)-4-methylcoumarin (CPM). Fluorescence was read using Envision reader at Ex 405 nm/Em 480 nm about 30 minutes after addition of final solution. Inhibition was normalized to controls containing DMSO or 10 uM {4-[4-(4-amino-7,7-dimethyl-7H-pyrimido[4,5-b][1,4]oxazin-6-yl)phenyl]cyclohexyl}acetic acid. IC50s were fitted using GraphPad Prism to a sigmoidal dose response.", "units": {"IC50": "nM"}, "values": [
      {"compound": "CCCn1c(-c2ccccc2)cc2cc(N3CCOc4ncnc(N)c4C3=O)ccc21", "note": "[Example 95, 4-Amino-6-(2-phenyl-1-propyl-1H-indol-5-yl)-7,8-dihydropyrimido[5,4-f][1,4]oxazepin-5(6H)-one]", "IC50": 10.1}
    ]},
    {"target": "T1, Human DGAT1", "assay": "hDGAT1 lipid extraction (LE) assay, inhibition of triacylglycerol product formation", "type": "biochemical", "details": "human DGAT1 microsomes from Sf9 cells; radiolabelled tridecanoylglycerol extraction", "protocol": "as §1\nFor inhibition of triacylglycerol product formation, 11 uL reactions were run in white Polyplate-384 (PerkinElmer6007300) starting with a 30 minute pre-reaction incubation of 5 uL of 2.2× enzyme and 1 uL of 100% DMSO containing test compound or control compound, {4-[4-(4-amino-7,7-dimethyl-7H-pyrimido[4,5-b][1,4]oxazin-6-yl)phenyl]cyclohexyl}acetic acid. Some assays were performed with inclusion of didecanoylglycerol in the pre-reaction incubation of test compounds and enzyme. Reactions were initiated after 30 minute pre-reaction incubation via addition of 5 uL of 2.2× substrate. Final reaction conditions consisted of 50 mM HEPES pH 7.5, 2 mM MgCl2, 1 mM CHAPS, 25 uM didecanoylglycerol, 0.5 uM decanoyl-CoA, 0.3 nCi/uL [^14C]-decanoyl-CoA or 0.5 nCi/uL [^3H]-decanoyl-CoA, 0.05-4 ug/mL microsomal protein, and 1% DMSO. Following 60 minute reaction incubation, reactions were stopped with 40 uL of 45% isopropanol and 50 mM sodium carbonate in water and mixed. Extraction of tridecanoylglycerol product was accomplished via addition of 30 uL Microscint-E (Perkin Elmer) and 2 hours of incubation (sealed). Plates were read on a Microbeta Microplate reader. Inhibition was normalized to controls containing DMSO or 10 uM {4-[4-(4-amino-7,7-dimethyl-7H-pyrimido[4,5-b][1,4]oxazin-6-yl)phenyl]cyclohexyl}acetic acid. IC50s were fitted using GraphPad Prism to a sigmoidal dose response.", "units": {"IC50": "nM"}, "values": [
      {"compound": "4-amino-6-(6-fluoro-1-phenyl-1H-indol-5-yl)-5H,6H,7H,8H-pyrimido[5,4-f][1,4]oxazepin-5-one [Example 96]", "IC50": 7.3},
      {"compound": "Nc1ncnc2c1C(=O)N(c1cnc3c(ccn3CC(F)F)c1)CCO2", "note": "[Example 33, 4-Amino-6-(1-(2,2-difluoroethyl)-1H-pyrrolo[2,3-b]pyridin-5-yl)-7,8-dihydropyrimido[5,4-f][1,4]oxazepin-5(6H)-one]", "IC50": 23.3},
      {"compound": "CS(=O)(=O)n1ccc2cc(N3CCOc4ncnc(N)c4C3=O)ccc21", "note": "[Example 60, 4-amino-6-(1-methanesulfonyl-1H-indol-5-yl)-5H,6H,7H,8H-pyrimido[5,4-f][1,4]oxazepin-5-one]", "IC50": 14.8},
      {"compound": "CCCn1cc(C(=O)C(F)(F)F)c2cc(N3CCOc4ncnc(N)c4C3=O)ccc21", "note": "[Example 63, 4-Amino-6-(1-propyl-3-(2,2,2-trifluoroacetyl)-1H-indol-5-yl)-7,8-dihydropyrimido[5,4-f][1,4]oxazepin-5(6H)-one]", "IC50": 2.3},
      {"compound": "CCCn1cc(C(C)(OC)C(F)(F)F)c2cc(N3CCOc4ncnc(N)c4C3=O)ccc21", "note": "(stereo not shown) [Example 64, 4-amino-6-[1-propyl-3-(1,1,1-trifluoro-2-methoxypropan-2-yl)-1H-indol-5-yl]-5H,6H,7H,8H-pyrimido[5,4-f][1,4]oxazepin-5-one]", "IC50": 8.8},
      {"compound": "Nc1ncnc2c1C(=O)N(c1ccc3c(ccn3-c3ccccc3)c1)CCO2", "note": "[Example 65, 4-Amino-6-(1-phenyl-1H-indol-5-yl)-7,8-dihydropyrimido[5,4-f][1,4]oxazepin-5(6H)-one]", "IC50": 3.9},
      {"compound": "Nc1ncnc2c1C(=O)N(c1cnc3c(ccn3-c3ccccc3)c1)CCO2", "note": "[Example 72, 4-amino-6-{1-phenyl-1H-pyrrolo[2,3-b]pyridin-5-yl}-5H,6H,7H,8H-pyrimido[5,4-f][1,4]oxazepin-5-one]", "IC50": 9.3},
      {"compound": "Nc1ncnc2c1C(=O)N(c1ccc3c(ccn3-c3ccc(F)c(F)c3)c1)CCO2", "note": "[Example 74, 4-amino-6-[1-(3,4-difluorophenyl)-1H-indol-5-yl]-5H,6H,7H,8H-pyrimido[5,4-f][1,4]oxazepin-5-one]", "IC50": 4.5},
      {"compound": "Nc1ncnc2c1C(=O)N(c1ccc3c(ccn3-c3cccc(C(F)(F)F)c3)c1)CCO2", "note": "[Example 80, 4-amino-6-{1-[3-(trifluoromethyl)phenyl]-1H-indol-5-yl}-5H,6H,7H,8H-pyrimido[5,4-f][1,4]oxazepin-5-one]", "IC50": 3.6},
      {"compound": "Nc1ncnc2c1C(=O)N(c1cnc3c(ccn3-c3cccc(C(F)(F)F)c3)c1)CCO2", "note": "[Example 81, 4-amino-6-{1-[3-(trifluoromethyl)phenyl]-1H-pyrrolo[2,3-b]pyridin-5-yl}-5H,6H,7H,8H-pyrimido[5,4-f][1,4]oxazepin-5-one]", "IC50": 2.1},
      {"compound": "Nc1ncnc2c1C(=O)N(c1ccc3ncn(Cc4ccccc4)c(=O)c3c1)CCO2", "note": "[Example 97, 4-Amino-6-(3-benzyl-4-oxo-3,4-dihydroquinazolin-6-yl)-7,8-dihydropyrimido[5,4-f][1,4]oxazepin-5(6H)-one]", "IC50": 201},
      {"compound": "Nc1ncnc2c1C(=O)N(c1ccc3nc[nH]c(=O)c3c1)CCO2", "note": "[Example 98, 4-Amino-6-(4-oxo-3,4-dihydroquinazolin-6-yl)-7,8-dihydropyrimido[5,4-f][1,4]oxazepin-5(6H)-one]", "IC50": 623}
    ]}
  ]
}
